Test system: Colorado potato beetles (Leptinotarsa decemlineata Say)
Assay: Field test of foliar sprays on potato plots: efficacy on Colorado potato beetles, number of larvae alive
Format: in vivo
Conditions: for Number Larvae Alive 3 DAT: 3 days after treatment; for Number Larvae Alive 3 DAT / Number Larvae Alive 7 DAT / Number Larvae Alive 14 DAT / Number Larvae Alive 21 DAT / Number Larvae Alive 28 DAT: foliar spray; for Number Larvae Alive 7 DAT: 7 days after treatment; for Number Larvae Alive 14 DAT: 14 days after treatment; for Number Larvae Alive 21 DAT: 21 days after treatment; for Number Larvae Alive 28 DAT: 28 days after treatment; for Number Larvae Alive 0 Days: before treatment (0 days, baseline)
Procedure: The compositions of the present invention were tested for Colorado Potato Beetle activity in the following manner:
Test compositions made up of Fury 10 EW, Mospilan 20 SP and Regent 200 SC were prepared that provided appropriate rates of application of combinations of zeta-cypermethrin, acetamiprid and fipronil, as well as zeta-cypermethrin, acetamiprid and fipronil alone.
The test was set up as a randomized complete block with 3 replicates. Each test plot was 24 meters square containing 3 rows of 50 plants. All test materials were applied as a foliar spray in 300 liters per hectare of water using a PILMET 212 sprayer at 0.35 Mpa. Observations were made before treatment (0 days), 3 days after treatment (DAT), 7 DAT, 14 DAT, 21 DAT and 28 DAT. For each observation 50 plants were inspected. For each observation the number of larvae reported was the total on the 10 most infested plants. Results reported are an average of three replicates.

CC1(C)C(C=C(Cl)Cl)C1C(=O)OC(C#N)c1cccc(Oc2ccccc2)c1 [A, (R,S)-α-cyano-3-phenoxybenzyl-(1R,S)-cis-trans-3-(2,2-dichlorovinyl)-2,2-dimethylcyclopropanecarboxylate]
Number Larvae Alive 3 DAT (A 200 ml per hectare): 10
Number Larvae Alive 7 DAT (A 200 ml per hectare): 18
Number Larvae Alive 14 DAT (A 200 ml per hectare): 15
Number Larvae Alive 21 DAT (A 200 ml per hectare): 43
Number Larvae Alive 28 DAT (A 200 ml per hectare): 20
Number Larvae Alive 0 Days (A 200 ml per hectare, total on 10 most infested plants, average of 3 replicates): 303

C/C(=N\C#N)N(C)Cc1ccc(Cl)nc1 [B, (E)-N^1-[(6-chloro-3-pyridyl)methyl]-N^2-cyano-N^1-methylacetamidine]
Number Larvae Alive 3 DAT (B 100 g per hectare): 8
Number Larvae Alive 7 DAT (B 100 g per hectare): 22
Number Larvae Alive 14 DAT (B 100 g per hectare): 18
Number Larvae Alive 21 DAT (B 100 g per hectare): 38
Number Larvae Alive 28 DAT (B 100 g per hectare): 47
Number Larvae Alive 0 Days (B 100 g per hectare): 362

N#Cc1nn(-c2c(Cl)cc(C(F)(F)F)cc2Cl)c(N)c1[S+]([O-])C(F)(F)F (stereo not drawn) [C, 5-amino-1-(2,6-dichloro-α,α,α-trifluoro-p-tolyl)-4-trifluoromethylsulfinylpyrazole-3-carbonitrile]
Number Larvae Alive 3 DAT (C 100 ml per hectare): 2
Number Larvae Alive 7 DAT (C 100 ml per hectare): 0
Number Larvae Alive 14 DAT (C 100 ml per hectare): 0
Number Larvae Alive 21 DAT (C 100 ml per hectare): 22
Number Larvae Alive 28 DAT (C 100 ml per hectare): 17
Number Larvae Alive 0 Days (C 100 ml per hectare): 359

— patent US20100227897A1, “Composition for Controlling Colorado Potato Beetles” (FMC CORPORATION, priority 2006, published 2010)
